Molecular target: DRB1*1501 (Homo sapiens, UniProt P01903+P01911)
Assay: biochemical
Assay type: binding

With `CC(C)C[C@H](NC(=O)[C@H](Cc1ccc(O)cc1)NC(=O)[C@H](C)NC(=O)[C@H](CCCNC(=N)N)NC(=O)[C@H](CC(C)C)NC(=O)[C@H](CCC(N)=O)NC(=O)[C@H](CCC(=O)O)NC(=O)[C@H](C)NC(=O)[C@@H](N)CCC(=O)O)C(=O)N[C@@H](CC(=O)O)C(=O)NCC(=O)N[C@H](C(=O)NCC(=O)N[C@H](C(=O)N[C@@H](CCC(=O)O)C(=O)O)C(C)C)[C@@H](C)O` [A3 152–166] the IC50 was 48 nM.

Reference: article PMC3147111 (European journal of immunology, 2010)
